Test results as given in ChEMBL document CHEMBL2150986, “Synthesis and biological evaluation of 1-benzylidene-3,4-dihydronaphthalen-2-one as a new class of microtubule-targeting agents” (J Med Chem, 2012).

Columns and labels:
CCRF-CEM = test: Cytotoxicity against human CEM cells after 72 hrs by MTT assay; type: functional, cell-based
HCT-116 = test: cells; details: Homo sapiens, HCT-116, 72 h
MDA-MB-435 = test: cells; details: Homo sapiens, MDA-MB-435, 72 h
Description: Cytotoxicity against human MDA-MB-435 cells after 72 hrs by MTT assay

Tubulin = Tubulin (Sus scrofa, UniProt P02554+P02550); test: Inhibition of porcine brain tubulin assembly measured every 1 min for 60 mins by turbidimetric analysis

SMILES	IC50 (CCRF-CEM) [µM]	IC50 (HCT-116) [µM]	IC50 (MDA-MB-435) [µM]	IC50 (Tubulin) [µM]
COc1ccc2c(c1)CCC(=O)/C2=C/c1cccc(O)c1	1.46	1.76	0.76	–
COc1ccc2c(c1)/C(=C\c1ccc(OC)c(OC)c1OC)C(=O)CC2	4.21	2.68	1.35	–
COc1ccc2c(c1)CCC(=O)/C2=C/c1ccc(C)cc1	2.31	2.56	1.33	–
COc1cccc2c1CCC(=O)/C2=C/c1ccc(OC)c(OC)c1OC	> 10	> 10	> 10	–
COc1ccc2c(c1)CCC(=O)/C2=C/c1ccc(N(C)C)cc1	8.03	8.73	5.68	–
COc1cc(/C=C2/C(=O)CCc3c(OC)cccc32)ccc1O	> 10	> 10	8.63	–
COc1ccc2c(c1)/C(=C\c1ccc(C(F)(F)F)cc1)C(=O)CC2	> 10	6.16	6.45	–
COc1ccc2c(c1)/C(=C\c1ccc(C(C)(C)C)cc1)C(=O)CC2	> 10	> 10	> 10	–
COc1ccc(/C=C2/C(=O)CCc3c(OC)cccc32)cc1O	6.31	> 10	5.62	–
COc1ccc2c(c1)CCC(=O)/C2=C/c1ccc([N+](=O)[O-])cc1	0.68	2.23	0.54	–
COc1cccc2c1CCC(=O)/C2=C/c1ccccc1	8.69	> 10	6.31	–
COc1cccc2c1CCC(=O)/C2=C/c1cc(OC)c(OC)c(OC)c1	2.19	1.24	0.61	18.68
COc1ccc2c(c1)CCC(=O)/C2=C/c1ccc(Cl)cc1Cl	1.2	2.15	0.33	–
COc1ccc2c(c1)/C(=C\c1cccc(O)c1)C(=O)CC2	2.57	4.91	2.07	–
COc1ccc2c(c1)CCC(=O)/C2=C/c1ccc(O)cc1	0.96	1.13	0.45	–
COc1ccc(/C=C2/C(=O)CCc3c(OC)cccc32)cc1OC	1.35	2.12	1.54	–
COc1ccc2c(c1)/C(=C\c1ccc(C)cc1)C(=O)CC2	3.77	3.68	2.62	–
COc1ccc2c(c1)CCC(=O)/C2=C/c1ccc(Cl)cc1	0.95	1.25	0.89	–
COc1ccc2c(c1)/C(=C\c1ccc(O)cc1)C(=O)CC2	1.05	3.24	0.86	–
COc1cccc2c1CCC(=O)/C2=C/c1ccc(Cl)cc1	8.53	7.52	6.86	–
COc1cccc2c1CCC(=O)/C2=C/c1ccc(C(F)(F)F)cc1	> 10	5.38	5.89	–
COc1cccc2c1CCC(=O)/C2=C/c1ccc(Br)cc1	> 10	6.8	7.59	–
COc1ccc2c(c1)CCC(=O)/C2=C/c1ccc(Br)cc1	1.52	2.94	1.12	–
COc1cccc2c1CCC(=O)/C2=C/c1c(Cl)cccc1Cl	8.64	6.71	> 10	–
COc1ccc2c(c1)CCC(=O)/C2=C/c1ccccc1Cl	0.58	1.7	0.46	–
COc1ccc2c(c1)CCC(=O)/C2=C/c1ccc(O)c(OC)c1	5.81	7.5	4.51	–
COc1ccc2c(c1)CCC(=O)/C2=C/c1ccccc1	0.92	0.47	0.94	–

SMILES	IC50 (CCRF-CEM) [µM]	IC50 (HCT-116) [µM]	IC50 (MDA-MB-435) [µM]	IC50 (Tubulin) [µM]
COc1ccc2c(c1)/C(=C\c1ccc(OC)c(O)c1)C(=O)CC2	1.42	1.37	1.05	–
COc1cc(/C=C2/C(=O)CCc3c(OC)cccc32)cc(OC)c1	> 10	5.67	3.95	–
COc1ccc2c(c1)/C(=C\c1ccc(Cl)cc1)C(=O)CC2	> 10	4.69	5.83	–
COc1ccc2c(c1)CCC(=O)/C2=C/c1ccc(C(F)(F)F)cc1	1.21	2.32	0.75	–
COc1ccc(/C=C2/C(=O)CCc3c(OC)cccc32)cc1	2.64	3.58	1.37	–
COc1cc(/C=C2/C(=O)CCc3ccc(OC)cc32)cc(OC)c1	0.26	0.5	0.85	–
COc1ccc2c(c1)/C(=C\c1ccc(Br)cc1)C(=O)CC2	> 10	> 10	> 10	–
COc1cccc2c1CCC(=O)/C2=C/c1ccc(Cl)c(Cl)c1	> 10	> 10	> 10	–
COc1ccc2c(c1)/C(=C\c1ccccc1Cl)C(=O)CC2	5.26	2.35	1.68	–
COc1cccc2c1CCC(=O)/C2=C/c1ccc(C(C)(C)C)cc1	> 10	> 10	> 10	–
COc1ccc2c(c1)CCC(=O)/C2=C/c1ccc(OC)c(O)c1	0.12	0.32	0.63	–
COc1ccc2c(c1)/C(=C\c1ccc(O)c(OC)c1)C(=O)CC2	6.93	> 10	4.35	–
COc1ccc2c(c1)/C(=C\c1ccc([N+](=O)[O-])cc1)C(=O)CC2	> 10	8.95	> 10	–
COc1ccc2c(c1)/C(=C\c1ccccc1)C(=O)CC2	1.53	3.21	1.45	–
COc1cccc2c1CCC(=O)/C2=C/c1ccc([N+](=O)[O-])cc1	> 10	8.68	7.68	–
COc1ccc2c(c1)/C(=C\c1ccc(N(C)C)cc1)C(=O)CC2	> 10	> 10	> 10	–
COc1ccc2c(c1)CCC(=O)/C2=C/c1ccc(C(C)(C)C)cc1	3.1	6.7	1.77	–
COc1cccc2c1CCC(=O)/C2=C/c1ccc(N(C)C)cc1	> 10	9.78	7.76	–
COc1cccc2c1CCC(=O)/C2=C/c1ccc(C)cc1	> 10	> 10	> 10	–
COc1ccc2c(c1)/C(=C\c1ccc(Cl)c(Cl)c1)C(=O)CC2	> 10	> 10	> 10	–
COc1ccc2c(c1)/C(=C\c1ccc(OC)c(OC)c1)C(=O)CC2	0.27	1.32	0.89	–
COc1ccc2c(c1)CCC(=O)/C2=C/c1ccc(Cl)c(Cl)c1	1.86	2.52	1.23	–
COc1cccc2c1CCC(=O)/C2=C/c1ccccc1Cl	8.91	5.77	3.35	–
COc1ccc(/C=C2/C(=O)CCc3ccc(OC)cc32)cc1	0.89	1.91	0.73	–
COc1cccc2c1CCC(=O)/C2=C/c1ccc(O)cc1	4.32	2.69	1.54	–
COc1ccc2c(c1)/C(=C\c1ccc(Cl)cc1Cl)C(=O)CC2	> 10	> 10	> 10	–
COc1cccc2c1CCC(=O)/C2=C/c1ccc(Cl)cc1Cl	> 10	7.14	9.32	–
